The term Kd denotes the concentration at which binding is half-saturated.

Experimental findings from article doi:10.1101/2025.01.30.635804, “Emergence of specific binding and catalysis from a designed generalist binding protein” (bioRxiv, 2025) are described below.

The test system of one test is FABLED2. The test can be described thus: Fluorescence titration of design FABLED2 into Cou485. Conditions: binding to FABLED2.
Another test relates to FABLED4. Briefly: Fluorescence titration of design FABLED4 into Cou485. Conditions: binding to FABLED4.
The next test has as its system FABLED5. Briefly: Fluorescence titration of design FABLED5 into Cou485. Conditions: binding to FABLED5.
Another test concerns the target ABLE. Briefly: Cou485 fluorescence at varying concentrations of ABLE (control). Format: binding. The source says: The indicated FABLEs or ABLE (control)
Supplementary Figure 6 ç : Fitting Cou485 fluorescence at varying concentrations of ABLE
Unlike the quadratic binding curves observed with varying amounts
of FABLEs, the fluorescence of Cou485 increased linearly with increasing concentrations of […]

The next test has as its target five FABLE Designs. The test can be described thus: Cou485 fluorescence and binding with the five designed FABLE proteins (stated collectively). Conditions: all five designed proteins.
A further test deals with FABLED3. The test can be described thus: Fluorescence titration of design FABLED3 into Cou485. Conditions: binding to FABLED3.
Test [1] concerns FABLE. The test can be described thus: Fluorescence enhancement of coumarins on binding FABLE. How it is done:
protein coeluting with the coumarin at the same time. Incubation of 1.5 µM Cou485 and Cou481

The target in test [2] is FABLE. The test can be described thus: Fluorescence titration of FABLE into coumarin fluorophores (single-site model, global fit).
Experimental: Left column: Fluorescence of
(§1) Cou485 at two fixed concentrations of 3 μM and 6 μM were measured in the presence of increasing
(§2) amounts of each protein. The dissociation constant was obtained by globally fitting a single-site
(§3) binding model to data, as described at Supplementary Methods. The error bars represent standard
(§4) deviations of three independent measurements.
Determining binding constants
(§5) We used fluorescence titration experiments to determine the binding dissociation constants of
(§6) FABLE for Cou485, Cou481, and Cou540a with BioTek Synergy Neo2 Reader.
(§7) The excitation and emission wavelength with the largest shift upon FABLE interaction was used
(§8) to quantify the bound ligand, which is 395 nm (excitation) and 470 nm (emission) for Cou485,
(§9) 410 nm (excitation) and 470 nm (emission) for Cou481, 440 nm (excitation) and 510 nm (emission)
(§10) for Cou540a. For each ligand, FABLE in PBS was serially diluted while fixing the concentration
(§11) of ligand at indicated values. Global fitting with 2 fixed ligand concentrations was used to fit KD
(§12) using GraphPad Prism. bfree was obtained by measuring the fluorescence of the ligand in PBS after
(§13) • Ligandtotal: total concentration of ligand
• Ligandfree: free ligand
• Ligandbound: ligand binding to protein
• Ligandfree = ligandtotal- ligandbound
(§14) • bfree = brightness (fluorescence) of free ligand per μM
(§15) • bbound = brightness (fluorescence) of bound ligand per μM
• Proteintotal: total protein concentration
• N: binding stoichiometry
• KD: binding constant of protein-ligand interation

Experimental for FABLED2: Left column: Fluorescence of
as §1, §2, §3, §4
Determining binding constants
as §5, §6, §7, §8, §9, §10, §11, §12
(§16) 𝐹𝑙𝑢𝑜𝑟𝑒𝑠𝑐𝑒𝑛𝑐𝑒 = 𝑏!"#$%[𝐿𝑖𝑔𝑎𝑛𝑑!"#$%] + 𝑏&’(([𝐿𝑖𝑔𝑎𝑛𝑑&’((]
as §13
• Ligandfree: free ligand
(§17) • Ligandbound: ligand binding to protein […]
as §14, §15
Experimental for FABLED3: Left column: Fluorescence of
as §1, §2, §3, §4
Determining binding constants
as §5, §6, §7, §8, §9, §10, §11, §12, §16, §13
• Ligandfree: free ligand
as §17, §14, §15
Experimental for FABLED4: Left column: Fluorescence of
as §1, §2, §3, §4
Determining binding constants
as §5, §6, §7, §8, §9, §10, §11, §12, §16, §13
• Ligandfree: free ligand
as §17, §14, §15
Experimental for FABLED5: Left column: Fluorescence of
as §1, §2, §3, §4
Determining binding constants
as §5, §6, §7, §8, §9, §10, §11, §12, §16, §13
• Ligandfree: free ligand
as §17, §14, §15
Experimental for five FABLE Designs: as §1, §2, §3, §4
Determining binding constants
as §5, §6, §7, §8, §9, §10, §11, §12, §16, §13
• Ligandfree: free ligand
as §17, §14, §15

On to `CN(C)c1ccc2c(C(F)(F)F)cc(=O)oc2c1` [Cou485, 7-(dimethylamino)-4-(trifluormethyl)-coumarin], for which the “Ligand Efficiency” value was 0.344 kcal/(mol • heavy atom count) in the test with FABLED2; 0.309 kcal/(mol • heavy atom count) with FABLED4; 0.317 kcal/(mol • heavy atom count) with FABLED5; 0.334 kcal/(mol • heavy atom count) in the test on FABLED3; 0.345 kcal/(mol • heavy atom count) in the test with FABLE [2] (binding to FABLED1 (= FABLE)). The ΔG was -6.19 kcal/mol with FABLED2; -5.56 kcal/mol with FABLED4; -5.70 kcal/mol in the test on FABLED5; -6.02 kcal/mol with FABLED3; -6.21 kcal/mol with FABLE [2] (binding to FABLED1 (= FABLE)). Besides, the Kd on ABLE (3 and 6 µM Cou485, fit of fluorescence vs ABLE concentration, linear increase) was not below 500 µM; on five FABLE Designs, less than 100 µM; at FABLE [2] (FABLE titrated into two fixed fluorophore concentrations, PBS, global single-site fit) it was 27.8 ± 1 µM. In the test with ABLE (starting ABLE protein, non-saturable curve), the binding curve entry was “very weak binding”. Also, the “increase of fluorescence intensity at 470 nm” value in the test on FABLE [1] (1.5 µM fluorophore with 40 µM FABLE) amounted to 48 fold. Further, in the test on FABLE [1] (at saturating concentrations of FABLE), the maximal fluorescence enhancement came out at 48 fold.
